This is an account of results in US20230219906A1, “MACROCYCLIC-2-AMINO-3-FLUORO-BUT-3-ENAMIDES AS INHIBITORS OF MCL-1” (Janssen Pharmaceutica NV, priority 2020, published 2023).

The Ki is the equilibrium dissociation constant of an inhibitor or competing ligand from its target. The term AC50 denotes the midpoint of the concentration-response curve, whichever way the signal moves.

Assay [1] concerns the target Myeloid Cell Leukemia 1(Mcl-1) (Homo sapiens, UniProt Q07820). Briefly: Terbium labeled Mcl-1 HTRF binding assay with Cy5-labeled BIM BH3 peptide. The note with it: displacement of Cy5 Bim BH3 peptide; Ki=IC50/(1+[L]/Kd), [L]=8 nM, Kd=10 nM; 60 minutes at room temperature; read-out: Tb-MCL1 Ki. The method, then: Terbium labeled Myeloid Cell Leukemia 1(Mcl-1) homogeneous time-resolved fluorescence (HTRF) binding assay utilizing the BIM BH3 peptide (H2N—(C/Cy5Mal) WIAQELRRIGDEFN-OH) as the binding partner for Mcl-1.
This assay evaluated inhibition of the BH3 domain: Mcl-1 interaction by measuring the displacement of Cy5-labeled BIM BH3 peptide (H2N—(C/Cy5Mal) WIAQELRRIGDEFN-OH) in the HTRF assay format.
The following assay and stock buffers were prepared for use in the assay: (a) Stock buffer: 10 mM Tris-HCl, pH=7.5+150 mM NaCl, filtered, sterilized, and stored at 4° C.; and (b) 1X assay buffer, where the following ingredients were added fresh to stock buffer: 2 mM dithiothreitol (DTT), 0.0025% Tween-20, 0.1 mg/mL bovine serum albumin (BSA). The 1X Tb-Mcl-1+Cy5 Bim peptide solution was prepared by diluting the protein stock solution using the 1X assay buffer (b) to 25 pM Tb-Mcl-1 and 8 nM Cy5 Bim peptide.
Using the Acoustic ECHO, 100 nL of 100x test compound(s) were dispensed into individual wells of a white 384-well Perkin Elmer Proxiplate, for a final compound concentration of 1× and final DMSO concentration of 1%. Inhibitor control and neutral control (NC, 100 nL of 100% DMSO) were stamped into columns 23 and 24 of assay plate, respectively. Into each well of the plate was then dispensed 10 μL of the 1X Tb-Mcl-1+Cy5 Bim peptide solution. The plate was centrifuged with a cover plate at 1000 rpm for 1 minute, then incubated for 60 minutes at room temperature with plates covered.
The TR-FRET signal was read on an BMG PHERAStar FSX MicroPlate Reader at room temperature using the HTRF optic module (HTRF: excitation: 337 nm, light source: laser, emission A: 665 nm, emission B: 620 nm, integration start: 60 μs, integration time: […]).
The BMG PHERAStar FSX MicroPlate Reader was used to measure fluorescence intensity at two emission wavelengths—665 nm and 620 nm—and report relative fluorescence units (RFU) for both emissions, as well as a ratio of the emissions (665 nm/620 nm)*10,000. The RFU values were normalized to percent inhibition as follows:
% inhibition=(((NC−IC)−(compound−IC))/(NC−IC))*100
where IC (inhibitor control, low signal)= mean signal of 1X Tb-MCl-1+Cy5 Bim peptide+inhibitor control or 100% inhibition of Mcl-1; NC (neutral control, high signal)= mean signal 1X Tb-MCl-1+Cy5 Bim peptide with DMSO only or 0% inhibition An 11-point dose response curve was generated to determine IC50 values (using GenData) based on the following equation:
Y=Bottom+(Top−Bottom)/(1+10∧((log IC50−X)*HillSlope))
where Y=% inhibition in the presence of X inhibitor concentration; Top=100% inhibition derived from the IC (mean signal of Mcl-1+inhibitor control); Bottom=0% inhibition derived from the NC (mean signal of Mcl-1+DMSO); Hillslope=Hill coefficient; and IC50=concentration of compound with 50% inhibition in relation to top/neutral control (NC).
In this assay [L]=8 nM and Kd=10 nM
In general terms: TR-FRET usually uses a lanthanide donor and a delayed reading to cut background.

For assay [2], the system named is MOLP-8 human multiple myeloma cell line. Briefly: Caspase-Glo 3/7 apoptosis induction assay in MOLP-8 cells. Particulars: Homo sapiens, MOLP-8, 2 h, caspase-3/7 activity, 2 hours at 37° C.; averaged over all runs on all batches; read-out: MOLP8 AC50. The class given is cell-based. An excerpt:
MCL-1 is a regulator of apoptosis and is highly over-expressed in tumor cells that escape cell death. The assay evaluates the cellular potency of small-molecule compounds targeting regulators of the apoptosis pathway, primarily MCL-1, Bfl-1, Bcl-2, and other proteins of the Bcl-2 family. Protein-protein inhibitors disrupting the interaction of anti-apoptotic regulators with BH3-domain proteins initiate apoptosis.
The Caspase-Glo® 3/7 Assay is a luminescent assay that measures caspase-3 and −7 activities in purified enzyme preparations or cultures of adherent or suspension cells. The assay provides a proluminescent caspase-3/7 substrate, which contains the tetrapeptide sequence DEVD. This substrate is cleaved to release aminoluciferin, a substrate of luciferase used in the production of light. Addition of the single Caspase-Glo® 3/7 Reagent in an “add-mix-measure” format results in cell lysis, followed by caspase cleavage of the substrate and generation of a “glow-type” luminescent signal.
This assay uses the MOLP-8 human multiple myeloma cell line, which is sensitive to MCL-1 inhibition.
Cell cultures were maintained between 0.2 and 2.0×10^6 cells/mL. The cells were harvested by collection in 50 mL conical tubes. The cells were then pelleted at 500 g for 5 mins before removing supernatant and resuspension in fresh pre-warmed culture medium. The cells were counted and diluted as needed.
The assay reagent was prepared by transferring the buffer solution to the substrate vial and mixing. The solution may be stored for up to 1 week at 4° C. with negligible loss of signal.
Compounds were delivered in assay-ready plates (Proxiplate) and stored at −20° C. Assays always include 1 reference compound plate containing reference compounds. The plates were spotted with 40 nL of compounds (0.5% DMSO final in cells; serial dilution; […] highest conc. 1/3 dilution, 10 doses, duplicates). The compounds were used at room temperature and 4 μL of pre-warmed media was added to all wells except column 2 and 23. The negative control was prepared by adding 1% DMSO in media. The positive control was prepared by adding the appropriate positive control compound in final concentration of […] in media. The plate was prepared by adding 4 μL negative control to column 23, 4 μL positive control to column 2 and 4 μL cell suspension to all wells in the plate. The plate with cells was then incubated at 37° C. for 2 hours. The assay signal reagent is the Caspase-Glo solution described above, and 8 μL was added to all wells. The plates were then sealed and measured after 30 minutes.
The activity of a test compound was calculated as percent change in apoptosis induction as follows:
% Effect (AC50)=100−(sample-LC)/(HC-LC)*100
% Control=(sample/HC)*100
% Control min=(sample-LC)/(HC-LC)*100

Sequence of Myeloid Cell Leukemia 1(Mcl-1) (Q07820 whole entry, the tested form may be a part): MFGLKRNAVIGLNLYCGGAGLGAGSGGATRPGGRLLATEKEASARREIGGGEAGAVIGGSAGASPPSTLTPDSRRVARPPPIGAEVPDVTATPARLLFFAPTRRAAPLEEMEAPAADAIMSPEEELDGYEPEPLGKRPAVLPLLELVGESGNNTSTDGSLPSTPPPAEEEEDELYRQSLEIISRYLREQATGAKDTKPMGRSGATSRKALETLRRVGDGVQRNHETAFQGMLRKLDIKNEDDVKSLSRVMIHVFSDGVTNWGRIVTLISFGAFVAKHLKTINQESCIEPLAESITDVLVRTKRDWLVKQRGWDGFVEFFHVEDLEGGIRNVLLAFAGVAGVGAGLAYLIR

Take `CO[C@H]1CN(C(=O)[C@H]2/C(F)=C/C[C@H](C)[C@@H](C)S(=O)(=O)NC(=O)c3ccc4c(c3)N(C[C@@H]3CCCN32)C[C@@]2(CCCc3cc(Cl)ccc32)CO4)C[C@H]1OC` [Compound 60]: the Ki in assay [1] amounted to 0.022 nM. For the same compound, the AC50 in assay [2] came out at 92.3 nM.
Consider `C[C@@H]1[C@@H](C)C/C=C(\F)[C@H](C(=O)N(C)Cc2ccnn2C)N2CCC[C@H]2CN2C[C@@]3(CCCc4cc(Cl)ccc43)COc3ccc(cc32)C(=O)NS1(=O)=O` [Compound 34], for which the Ki in assay [1] worked out at 0.077 nM. Besides, the AC50 in assay [2] stood at 76.9 nM.
For `C[C@@H]1[C@@H](C)C/C=C(\F)[C@H](C(=O)N(C)C2CCOC2)N2CCC[C@H]2CN2C[C@@]3(CCCc4cc(Cl)ccc43)COc3ccc(cc32)C(=O)NS1(=O)=O` (single isomer, unassigned) [Compound 68] the same measures were 0.041 nM and 103 nM.
Take `C[C@@H]1[C@@H](C)C/C=C(\F)[C@H](C(=O)N(C)CCN2CCOCC2)N2CCC[C@H]2CN2C[C@@]3(CCOc4cc(Cl)ccc43)COc3ccc(cc32)C(=O)NS1(=O)=O` [Compound 78]: the Ki in assay [1] stood at 0.016 nM. In assay [2], the AC50 is 547 nM.
For the compound `COCCOCCN(C)C(=O)[C@H]1/C(F)=C/C[C@H](C)[C@@H](C)S(=O)(=O)NC(=O)c2ccc3c(c2)N(C[C@@H]2CCCN21)C[C@@]1(CCCc2cc(Cl)ccc21)CO3` [Compound 19], in assay [1], the Ki amounted to 0.045 nM. In assay [2], the AC50 is 79.3 nM.
As for `C[C@@H]1[C@@H](C)C/C=C(\F)[C@H](C(=O)N2CCC(CC#N)CC2)N2CCC[C@H]2CN2C[C@@]3(CCCc4cc(Cl)ccc43)COc3ccc(cc32)C(=O)NS1(=O)=O` [Compound 46], in assay [1], the Ki came out at 0.091 nM. The AC50 in assay [2] worked out at 329 nM.
Regarding `CC1CN(CCN(C)C(=O)[C@H]2/C(F)=C/C[C@H](C)[C@@H](C)S(=O)(=O)NC(=O)c3ccc4c(c3)N(C[C@@H]3CCCN32)C[C@@]2(CCCc3cc(Cl)ccc32)CO4)CC(C)O1` (stereo partly drawn) [Compound 44], the Ki in assay [1] stood at 0.104 nM. The AC50 in assay [2] turned out to be 87.3 nM.
`C[C@@H]1[C@@H](C)C/C=C(\F)[C@H](C(=O)N(C)Cc2ncnn2C)N2CCC[C@H]2CN2C[C@@]3(CCCc4cc(Cl)ccc43)COc3ccc(cc32)C(=O)NS1(=O)=O` [Compound 81]: in assay [1], the Ki came to 0.068 nM. Besides, the AC50 in assay [2] was 537 nM.
Consider `C[C@@H]1[C@@H](C)C/C=C(\F)[C@H](C(=O)N(C)CCN2CCOCC2)N2CCC[C@H]2CN2C[C@@]3(CCCc4cc(Cl)ccc43)COc3ccc(cc32)C(=O)NS1(=O)=O` [Compound 1], for which the Ki in assay [1] worked out at 0.027 nM. Moreover, the AC50 in assay [2] worked out at 80.1 nM.
As for `C[C@@H]1[C@@H](C)C/C=C(\F)[C@H](C(=O)N2CC(C(F)(F)F)C2)N2CCC[C@H]2CN2C[C@@]3(CCCc4cc(Cl)ccc43)COc3ccc(cc32)C(=O)NS1(=O)=O` [Compound 36], the Ki in assay [1] worked out at 0.325 nM. Also, in assay [2], the AC50 was 399 nM.
For `COCCN(CCOC)C(=O)[C@H]1/C(F)=C/C[C@H](C)[C@@H](C)S(=O)(=O)NC(=O)c2ccc3c(c2)N(C[C@@H]2CCCN21)C[C@@]1(CCOc2cc(Cl)ccc21)CO3` [Compound 77] the same measures were 0.027 nM and 144 nM.
For the compound `C[C@@H]1[C@@H](C)C/C=C(\F)[C@H](C(=O)N2CCCC3(C2)CC3(F)F)N2CCC[C@H]2CN2C[C@@]3(CCCc4cc(Cl)ccc43)COc3ccc(cc32)C(=O)NS1(=O)=O` (stereo partly drawn) [Compound 29], the Ki in assay [1] turned out to be 0.494 nM. The AC50 in assay [2] is 408 nM.
As to `C[C@@H]1[C@@H](C)C/C=C(\F)[C@H](C(=O)N(C)CCN2CCOC(C(F)(F)F)C2)N2CCC[C@H]2CN2C[C@@]3(CCCc4cc(Cl)ccc43)COc3ccc(cc32)C(=O)NS1(=O)=O` (single isomer, unassigned) [Compound 49], the Ki in assay [1] was 0.287 nM. In addition, the AC50 in assay [2] was found to be 366 nM.
Turning to `C[C@@H]1[C@@H](C)C/C=C(\F)[C@H](C(=O)N2CC(C)(N3CCOCC3)C2)N2CCC[C@H]2CN2C[C@@]3(CCCc4cc(Cl)ccc43)COc3ccc(cc32)C(=O)NS1(=O)=O` [Compound 84], the Ki in assay [1] was 0.04 nM. Also, the AC50 in assay [2] came out at 317 nM.
Take `COCCN(C)C(=O)[C@H]1/C(F)=C/C[C@H](C)[C@@H](C)S(=O)(=O)NC(=O)c2ccc3c(c2)N(C[C@@H]2CCCN21)C[C@@]1(CCCc2cc(Cl)ccc21)CO3` [Compound 21]: in assay [1], the Ki turned out to be 0.075 nM. Besides, the AC50 in assay [2] was determined as 78 nM.
In the case of `COCCN(CCOC)C(=O)[C@H]1/C(F)=C/C[C@H](C)[C@@H](C)S(=O)(=O)NC(=O)c2cc3c(cc2F)OC[C@]2(CCCc4cc(Cl)ccc42)CN3C[C@@H]2CCCN21` [Compound 18], the Ki in assay [1] was found to be 0.05 nM. For the same compound, in assay [2], the AC50 worked out at 213 nM.
For `COCCN(CCOC)C(=O)[C@H]1/C(F)=C/C[C@H](C)CS(=O)(=O)NC(=O)c2ccc3c(c2)N(C[C@@H]2CCCN21)C[C@@]1(CCCc2cc(Cl)ccc21)CO3` [Compound 88] the same measures were 0.029 nM and 116 nM.
`C[C@@H]1[C@@H](C)C/C=C(\F)C(CO)(C(=O)N(C)CCN2CCOCC2)N2CCC[C@H]2CN2C[C@@]3(CCCc4cc(Cl)ccc43)COc3ccc(cc32)C(=O)NS1(=O)=O` (stereo partly drawn) [Compound 86]: in assay [1], the Ki is 0.032 nM. In assay [2], the AC50 came out at 1600 nM.
Take `C[C@@H]1CN(C(=O)[C@H]2/C(F)=C/C[C@H](C)[C@@H](C)S(=O)(=O)NC(=O)c3ccc4c(c3)N(C[C@@H]3CCCN32)C[C@@]2(CCCc3cc(Cl)ccc32)CO4)CCO1` [Compound 4]: the Ki in assay [1] turned out to be 0.084 nM. The AC50 in assay [2] was determined as 71.3 nM.
Regarding `C[C@@H]1[C@@H](C)C/C=C(\F)[C@H](C(=O)N2CCO[C@@H](C)C2)N2CCC[C@H]2CN2C[C@@]3(CCCc4cc(Cl)ccc43)COc3ccc(cc32)C(=O)NS1(=O)=O` [Compound 6], the AC50 in assay [2] came to 84.3 nM.
